# Data from ChEMBL document CHEMBL1201862, “PubChem BioAssay data set” (2004).
# Activity calls are given as the source filed them.
# What was measured:
# Beta Lactamase = Beta Lactamase (Pseudomonas aeruginosa, UniProt Q932Y6); test: beta-lactamase reporter inhibitor potency, dose response, artefact control for TLR9-MyD88 binding inhibitor project, BLA reporter cells, FRET fluorescence (AID 588341); type: cell-based;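 note: cell based assay in CHO-K1 cells stably expressing beta-lactamase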
# CHO = test: cytotoxicity in TLR9-MyD88 CHO cells, dose response, cytotoxicity control for TLR9-MyD88 binding inhibitor project, cell-based, luminescence (AID 588339); type: functional, hamster; conditions: Cricetulus griseus;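 note: CHO cells stably coexpressing TLR9 and MyD88 fusions from primary screen; compound exposure lasted 48 hours before viability readout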
# [1] = target: Rho-associated protein kinase 1 (Homo sapiens, UniProt Q13464); type: functional;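 note: measured within a broad kinome-wide panel profiling many kinases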
# [2] = target: T1, Glycogen synthase kinase-3 beta (Homo sapiens, UniProt P49841); type: functional;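 note: value comes from a broad kinome profiling panel, with GSK3B as the panel member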
# [3] = target: Dual specificity protein kinase CLK4 (Homo sapiens, UniProt Q9HAZ1); type: functional
# [4] = target: Cyclin-dependent kinase 7 (Homo sapiens, UniProt P50613); type: functional;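 note: value comes from a kinome-wide kinase profiling panel in which CDK7 is one member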
# LIM domain kinase 1 = LIM domain kinase 1 (Homo sapiens, UniProt P53667); test: Navigating the Kinome. Panel member name: LIMK1; type: functional
# [5] = target: Cyclin-dependent kinase 8 (Homo sapiens, UniProt P49336); test: Navigating the Kinome. Panel member name: CDK8; type: functional
# [6] = target: Serine/threonine-protein kinase Chk1 (Homo sapiens, UniProt O14757); type: functional;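 note: measured as one member of a kinome-wide kinase profiling panel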
# [7] = target: Cyclin-dependent kinase 9 (Homo sapiens, UniProt P50750); type: functional;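 note: value from the CDK9 entry of a kinome-spanning kinase panel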
# [8] = target: Serine/threonine-protein kinase pim-1 (Homo sapiens, UniProt P11309); type: functional
# [9] = THP-1 cell cytotoxicity, cytotoxicity control, set 4 (AID 504911); type: functional; conditions: Mycobacterium tuberculosis
# [10] = THP-1 cell cytotoxicity, dose response, cytotoxicity control, set 3 (AID 504852); type: functional; conditions: Mycobacterium tuberculosis
# [11] = Vero cell cytotoxicity, dose response, cytotoxicity control for M. tuberculosis growth inhibitor project, Vero cells, purified and synthesized compounds, set 4 (AID 504854); type: functional; conditions: Mycobacterium tuberculosis
# [12] = target: T2, High affinity choline transporter 1 (Homo sapiens, UniProt Q9GZV3); test: CHT activators, dose response, cell-based, 10-point CRC, membrane potential dye (AID 602376); type: functional
# T2 sequence (Q9GZV3 whole entry): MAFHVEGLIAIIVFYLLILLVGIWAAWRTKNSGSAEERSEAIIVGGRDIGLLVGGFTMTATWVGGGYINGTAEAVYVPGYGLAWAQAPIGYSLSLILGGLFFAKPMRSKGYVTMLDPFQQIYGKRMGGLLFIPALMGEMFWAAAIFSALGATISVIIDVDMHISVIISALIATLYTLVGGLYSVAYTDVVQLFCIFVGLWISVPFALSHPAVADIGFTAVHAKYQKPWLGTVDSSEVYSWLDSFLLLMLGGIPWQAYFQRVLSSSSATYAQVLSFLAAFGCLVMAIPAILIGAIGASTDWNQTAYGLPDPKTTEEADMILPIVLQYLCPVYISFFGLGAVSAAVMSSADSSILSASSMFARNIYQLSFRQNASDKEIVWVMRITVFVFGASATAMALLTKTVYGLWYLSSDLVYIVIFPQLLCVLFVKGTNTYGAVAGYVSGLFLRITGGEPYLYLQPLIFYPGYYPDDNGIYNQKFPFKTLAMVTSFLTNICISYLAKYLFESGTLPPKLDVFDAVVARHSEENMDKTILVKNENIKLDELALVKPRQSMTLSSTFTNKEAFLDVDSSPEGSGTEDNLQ
# [13] = target: Melanin-concentrating hormone receptor 1 (Homo sapiens, UniProt Q99705); test: Late-stage fluorescence-based counterscreen for antagonists of the G-protein coupled receptor 7 (GPR7): cell-based dose response assay to identify antagonists of the melanin-concentrating hormone receptor 1 (MCHR1) Set 5.; type: functional
# [14] = target: Neuropeptides B/W receptor type 1 (Homo sapiens, UniProt P48145); test: GPR7 antagonist potency, late-stage follow-up, cell-based, fluorescence, dose response, set 5 (AID 588566); type: functional
# [15] = target: Interleukin-1 receptor-associated kinase 1 (Homo sapiens, UniProt P51617); type: functional;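 note: IRAK1 tested as one member of a kinome panel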
# [16] = target: Serine/threonine-protein kinase PLK3 (Homo sapiens, UniProt Q9H4B4); type: functional
# [17] = target: Serine/threonine-protein kinase PLK4 (Homo sapiens, UniProt O00444); type: functional;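 note: PLK4 measured as one member of a kinome-wide kinase profiling panel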
# INS1 [18] = test: inhibitors of cytokine-induced nitrite release, dose response, cell-based, Griess absorbance, INS-1E, dry powder (AID 488866); type: functional; conditions: Rattus norvegicus
# INS1 [19] = test: inhibitors of cytokine-induced nitrite release, dose response, cell-based, Griess absorbance, INS-1E, dry powder, set 2 (AID 488868); type: functional; conditions: Rattus norvegicus
# INS1 [20] = test: protection of INS-1E cells from cytokine death, dose response, ATP luminescence, dry powder (AID 488844); type: functional, cell-based; conditions: Rattus norvegicus
# [21] = inhibitors of cytokine-induced nitrite release, dose response, cell-based, Griess absorbance, INS-1E, dry powder, set 3 (AID 488870); type: functional; conditions: Rattus norvegicus
# INS1 [22] = test: protection from cytokine-induced mitochondrial depolarization, dose response, cell-based, INS-1E, JC-1 fluorescence ratio, dry powder (AID 488931); type: functional; conditions: Rattus norvegicus
# [23] = target: Cyclin-dependent kinase 1 (Homo sapiens, UniProt P06493); type: functional;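 note: Kinome-wide panel profiling, with the target listed as panel member CDC2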
# [24] = target: Protein kinase C gamma type (Homo sapiens, UniProt P05129); type: functional
# [25] = target: T3, Dual specificity tyrosine-phosphorylation-regulated kinase 3 (Homo sapiens, UniProt O43781); type: functional;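 note: measured as one member of a broad kinase panel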
# T3 sequence (O43781 whole entry): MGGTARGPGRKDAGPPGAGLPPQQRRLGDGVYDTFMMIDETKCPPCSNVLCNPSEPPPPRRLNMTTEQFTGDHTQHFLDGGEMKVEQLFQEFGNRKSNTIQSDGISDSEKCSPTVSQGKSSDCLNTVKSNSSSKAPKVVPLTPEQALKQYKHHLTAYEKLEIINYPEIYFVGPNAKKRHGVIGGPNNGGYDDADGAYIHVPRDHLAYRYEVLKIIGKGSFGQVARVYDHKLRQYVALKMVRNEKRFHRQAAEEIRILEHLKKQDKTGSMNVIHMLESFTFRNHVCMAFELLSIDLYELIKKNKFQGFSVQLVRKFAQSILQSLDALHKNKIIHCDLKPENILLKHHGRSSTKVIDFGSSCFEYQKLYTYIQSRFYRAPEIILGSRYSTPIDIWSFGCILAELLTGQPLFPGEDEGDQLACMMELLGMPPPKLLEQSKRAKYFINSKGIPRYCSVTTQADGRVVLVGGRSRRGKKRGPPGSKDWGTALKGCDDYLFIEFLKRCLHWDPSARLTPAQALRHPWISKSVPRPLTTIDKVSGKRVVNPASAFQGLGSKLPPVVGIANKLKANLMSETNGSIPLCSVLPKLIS
# [26] = target: T4, Testis-specific serine/threonine-protein kinase 2 (Homo sapiens, UniProt Q96PF2); type: functional;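 note: part of the Navigating the Kinome panel, target entry STK22B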
# T4 sequence (Q96PF2 whole entry): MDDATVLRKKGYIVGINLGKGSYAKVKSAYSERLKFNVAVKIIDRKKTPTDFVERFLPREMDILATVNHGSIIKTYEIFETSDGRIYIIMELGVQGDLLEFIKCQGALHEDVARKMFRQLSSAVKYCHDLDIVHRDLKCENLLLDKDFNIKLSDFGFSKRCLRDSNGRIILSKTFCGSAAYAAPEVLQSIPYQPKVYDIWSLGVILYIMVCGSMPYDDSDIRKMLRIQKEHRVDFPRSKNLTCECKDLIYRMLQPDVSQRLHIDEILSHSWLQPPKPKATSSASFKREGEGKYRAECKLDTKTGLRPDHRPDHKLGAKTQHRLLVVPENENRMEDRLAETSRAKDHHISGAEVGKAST
# [27] = target: G protein-coupled receptor kinase 5 (Homo sapiens, UniProt P34947); test: Navigating the Kinome. Panel member name: GPRK5; type: functional
# [28] = target: T5, Lymphokine-activated killer T-cell-originated protein kinase (Homo sapiens, UniProt Q96KB5); type: functional;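 note: value comes from a kinase panel screen in which TOPK was one of the panel members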
# T5 sequence (Q96KB5 whole entry): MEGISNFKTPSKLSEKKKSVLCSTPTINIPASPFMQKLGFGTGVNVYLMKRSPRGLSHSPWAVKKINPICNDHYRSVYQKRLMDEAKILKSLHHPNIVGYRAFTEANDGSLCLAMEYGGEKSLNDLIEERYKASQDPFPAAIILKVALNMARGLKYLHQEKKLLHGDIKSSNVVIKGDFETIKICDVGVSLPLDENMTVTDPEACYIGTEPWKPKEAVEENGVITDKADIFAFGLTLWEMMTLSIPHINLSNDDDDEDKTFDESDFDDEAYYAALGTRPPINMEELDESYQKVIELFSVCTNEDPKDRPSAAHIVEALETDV
# [29] = target: MAP kinase-activated protein kinase 3 (Homo sapiens, UniProt Q16644); type: functional;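 note: value comes from a kinome-wide profiling panel in which MAPKAPK3 is one of the panel members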
# [30] = target: Eukaryotic elongation factor 2 kinase (Homo sapiens, UniProt O00418); type: functional
# [31] = target: PAS domain-containing serine/threonine-protein kinase (Homo sapiens, UniProt Q96RG2); type: functional
# [32] = target: T6, Protein kinase C zeta type (Homo sapiens, UniProt Q05513); type: functional;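 note: measured as one member of a broad kinase profiling panel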
# T6 sequence (Q05513 whole entry): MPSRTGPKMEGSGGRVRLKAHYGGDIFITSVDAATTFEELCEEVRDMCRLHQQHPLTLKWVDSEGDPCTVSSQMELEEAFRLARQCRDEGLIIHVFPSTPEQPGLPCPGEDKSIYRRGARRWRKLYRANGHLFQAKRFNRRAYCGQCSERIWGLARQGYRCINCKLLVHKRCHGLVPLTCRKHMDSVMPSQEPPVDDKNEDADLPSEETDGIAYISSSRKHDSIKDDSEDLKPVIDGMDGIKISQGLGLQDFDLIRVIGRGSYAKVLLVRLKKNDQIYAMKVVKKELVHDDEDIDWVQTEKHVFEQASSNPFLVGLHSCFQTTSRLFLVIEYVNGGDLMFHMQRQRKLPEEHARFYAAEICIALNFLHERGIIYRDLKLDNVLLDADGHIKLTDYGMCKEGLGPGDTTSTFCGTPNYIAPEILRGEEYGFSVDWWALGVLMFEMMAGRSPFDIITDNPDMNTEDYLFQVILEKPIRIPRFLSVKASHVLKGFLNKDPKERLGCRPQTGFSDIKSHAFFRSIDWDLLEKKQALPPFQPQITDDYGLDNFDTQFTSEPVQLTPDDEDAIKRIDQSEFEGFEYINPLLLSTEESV
# [33] = target: Cell division cycle 7-related protein kinase (Homo sapiens, UniProt O00311); type: functional;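 note: value obtained from a kinome-wide kinase panel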
# [34] = target: T1, Glycogen synthase kinase-3 beta; test: GSK3beta kinase inhibitors, dose response, biochemical, microfluidics, dry powder samples, set 2 (AID 623989); type: functional
# [35] = target: Glycogen synthase kinase-3 alpha (Homo sapiens, UniProt P49840); test: human GSK3 alpha kinase inhibition, dose response, selectivity assay for GSK3beta inhibitor project, biochemical, microfluidics, dry powder samples, set 2 (AID 623978); type: functional
# Sequence of Glycogen synthase kinase-3 alpha (P49840 whole entry): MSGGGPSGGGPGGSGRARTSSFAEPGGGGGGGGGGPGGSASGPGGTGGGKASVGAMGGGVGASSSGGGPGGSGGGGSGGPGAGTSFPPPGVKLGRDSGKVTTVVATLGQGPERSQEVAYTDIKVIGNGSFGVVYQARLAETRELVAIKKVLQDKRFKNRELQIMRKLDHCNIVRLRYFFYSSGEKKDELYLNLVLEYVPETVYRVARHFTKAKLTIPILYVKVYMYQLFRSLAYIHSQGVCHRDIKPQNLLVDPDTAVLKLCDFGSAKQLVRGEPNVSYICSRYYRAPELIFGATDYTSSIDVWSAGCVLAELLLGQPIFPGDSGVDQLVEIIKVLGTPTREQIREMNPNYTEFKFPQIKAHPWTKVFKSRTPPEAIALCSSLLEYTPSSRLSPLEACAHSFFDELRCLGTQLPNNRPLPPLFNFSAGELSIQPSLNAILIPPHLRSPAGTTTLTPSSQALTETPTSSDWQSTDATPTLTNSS
# T1 sequence (P49841 whole entry): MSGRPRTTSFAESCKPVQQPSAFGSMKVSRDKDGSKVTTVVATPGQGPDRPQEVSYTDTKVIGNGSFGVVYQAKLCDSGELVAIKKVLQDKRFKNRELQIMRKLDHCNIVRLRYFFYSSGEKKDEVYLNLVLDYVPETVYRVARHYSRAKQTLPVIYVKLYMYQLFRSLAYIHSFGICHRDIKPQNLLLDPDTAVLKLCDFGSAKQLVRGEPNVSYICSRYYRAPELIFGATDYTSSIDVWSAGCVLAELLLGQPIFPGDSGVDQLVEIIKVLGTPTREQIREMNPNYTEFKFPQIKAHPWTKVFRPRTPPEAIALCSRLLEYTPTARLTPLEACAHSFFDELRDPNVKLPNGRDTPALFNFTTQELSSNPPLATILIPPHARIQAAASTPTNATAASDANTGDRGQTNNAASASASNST
# Sequence of Serine/threonine-protein kinase pim-1 (P11309 whole entry): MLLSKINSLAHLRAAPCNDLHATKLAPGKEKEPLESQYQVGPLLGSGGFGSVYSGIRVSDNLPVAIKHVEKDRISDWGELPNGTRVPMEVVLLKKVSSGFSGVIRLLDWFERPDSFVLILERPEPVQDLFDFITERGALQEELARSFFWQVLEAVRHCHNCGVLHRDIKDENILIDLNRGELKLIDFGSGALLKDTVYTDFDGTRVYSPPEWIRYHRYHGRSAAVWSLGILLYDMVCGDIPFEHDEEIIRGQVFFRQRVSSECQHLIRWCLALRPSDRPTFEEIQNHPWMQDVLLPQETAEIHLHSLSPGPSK
# Sequence of MAP kinase-activated protein kinase 3 (Q16644 whole entry): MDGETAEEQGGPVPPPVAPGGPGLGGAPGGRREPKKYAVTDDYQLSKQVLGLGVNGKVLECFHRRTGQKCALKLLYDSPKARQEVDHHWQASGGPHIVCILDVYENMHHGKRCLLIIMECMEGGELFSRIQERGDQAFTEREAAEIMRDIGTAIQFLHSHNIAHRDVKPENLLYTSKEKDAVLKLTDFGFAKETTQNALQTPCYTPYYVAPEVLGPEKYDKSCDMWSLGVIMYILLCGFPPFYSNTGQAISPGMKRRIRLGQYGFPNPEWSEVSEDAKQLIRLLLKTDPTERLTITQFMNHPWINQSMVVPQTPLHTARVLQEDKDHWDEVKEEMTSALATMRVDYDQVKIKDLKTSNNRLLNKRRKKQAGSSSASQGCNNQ
# Sequence of Cyclin-dependent kinase 8 (P49336 whole entry): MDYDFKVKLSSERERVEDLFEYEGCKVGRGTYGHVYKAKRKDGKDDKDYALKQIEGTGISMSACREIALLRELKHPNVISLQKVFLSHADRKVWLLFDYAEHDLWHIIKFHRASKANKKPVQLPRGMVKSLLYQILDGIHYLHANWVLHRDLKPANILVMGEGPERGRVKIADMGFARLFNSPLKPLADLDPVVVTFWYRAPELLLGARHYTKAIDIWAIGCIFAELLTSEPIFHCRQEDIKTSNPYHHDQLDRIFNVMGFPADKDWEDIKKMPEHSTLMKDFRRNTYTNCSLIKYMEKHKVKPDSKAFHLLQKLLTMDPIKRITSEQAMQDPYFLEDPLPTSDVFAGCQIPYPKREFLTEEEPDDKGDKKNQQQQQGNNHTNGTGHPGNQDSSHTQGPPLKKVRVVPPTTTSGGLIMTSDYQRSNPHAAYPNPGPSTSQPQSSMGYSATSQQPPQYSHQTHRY
# Sequence of Beta Lactamase (Q932Y6 whole entry, the tested form may be a part): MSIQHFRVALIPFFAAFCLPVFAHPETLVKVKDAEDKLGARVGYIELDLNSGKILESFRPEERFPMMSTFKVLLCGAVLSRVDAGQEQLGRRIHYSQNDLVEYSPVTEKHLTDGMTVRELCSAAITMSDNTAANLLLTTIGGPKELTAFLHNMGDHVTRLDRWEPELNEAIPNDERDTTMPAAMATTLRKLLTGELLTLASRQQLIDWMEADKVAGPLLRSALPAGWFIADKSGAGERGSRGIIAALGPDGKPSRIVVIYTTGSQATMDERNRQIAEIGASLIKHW
# Sequence of Eukaryotic elongation factor 2 kinase (O00418 whole entry, the tested form may be a part): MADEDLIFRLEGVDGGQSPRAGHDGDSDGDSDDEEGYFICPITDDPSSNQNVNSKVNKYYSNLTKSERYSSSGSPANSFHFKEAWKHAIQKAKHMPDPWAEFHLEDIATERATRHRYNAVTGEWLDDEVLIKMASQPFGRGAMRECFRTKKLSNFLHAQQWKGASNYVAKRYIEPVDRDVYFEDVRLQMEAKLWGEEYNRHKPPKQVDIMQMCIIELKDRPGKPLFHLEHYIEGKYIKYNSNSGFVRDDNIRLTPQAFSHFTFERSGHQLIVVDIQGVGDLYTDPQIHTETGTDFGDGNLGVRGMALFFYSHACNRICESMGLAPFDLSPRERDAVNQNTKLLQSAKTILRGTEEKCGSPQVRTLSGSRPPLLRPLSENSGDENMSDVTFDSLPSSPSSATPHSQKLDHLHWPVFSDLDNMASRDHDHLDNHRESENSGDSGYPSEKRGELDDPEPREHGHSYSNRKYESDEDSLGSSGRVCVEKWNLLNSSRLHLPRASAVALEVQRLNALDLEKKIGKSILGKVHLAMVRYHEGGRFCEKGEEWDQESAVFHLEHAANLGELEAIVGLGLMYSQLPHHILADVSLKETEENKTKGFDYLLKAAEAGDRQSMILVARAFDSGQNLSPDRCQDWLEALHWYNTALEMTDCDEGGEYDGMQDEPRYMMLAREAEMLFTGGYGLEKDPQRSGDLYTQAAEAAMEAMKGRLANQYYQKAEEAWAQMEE
# Sequence of Serine/threonine-protein kinase Chk1 (O14757 whole entry): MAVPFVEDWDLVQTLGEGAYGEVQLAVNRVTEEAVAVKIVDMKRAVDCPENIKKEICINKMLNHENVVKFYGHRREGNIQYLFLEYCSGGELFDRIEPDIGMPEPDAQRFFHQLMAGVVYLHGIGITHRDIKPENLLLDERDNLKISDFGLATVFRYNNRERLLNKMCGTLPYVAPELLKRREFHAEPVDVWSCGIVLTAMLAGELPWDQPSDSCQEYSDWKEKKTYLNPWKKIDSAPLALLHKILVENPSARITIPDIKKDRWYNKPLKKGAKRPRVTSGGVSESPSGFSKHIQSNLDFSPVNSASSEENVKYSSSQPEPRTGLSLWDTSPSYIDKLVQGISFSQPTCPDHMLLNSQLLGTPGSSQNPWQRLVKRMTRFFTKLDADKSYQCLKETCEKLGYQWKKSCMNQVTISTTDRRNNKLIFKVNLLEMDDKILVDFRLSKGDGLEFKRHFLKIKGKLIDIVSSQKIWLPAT
# Sequence of Cyclin-dependent kinase 7 (P50613 whole entry, the tested form may be a part): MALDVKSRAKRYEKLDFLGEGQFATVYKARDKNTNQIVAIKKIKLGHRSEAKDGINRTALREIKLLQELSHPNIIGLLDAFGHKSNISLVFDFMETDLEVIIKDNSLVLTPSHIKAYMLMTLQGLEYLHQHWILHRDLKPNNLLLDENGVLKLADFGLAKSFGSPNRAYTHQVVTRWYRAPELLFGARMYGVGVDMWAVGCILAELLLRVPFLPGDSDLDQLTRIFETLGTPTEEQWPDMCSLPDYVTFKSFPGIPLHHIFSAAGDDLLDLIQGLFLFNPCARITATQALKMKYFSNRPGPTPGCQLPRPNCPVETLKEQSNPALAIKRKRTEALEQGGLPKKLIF
# Sequence of Cyclin-dependent kinase 1 (P06493 whole entry): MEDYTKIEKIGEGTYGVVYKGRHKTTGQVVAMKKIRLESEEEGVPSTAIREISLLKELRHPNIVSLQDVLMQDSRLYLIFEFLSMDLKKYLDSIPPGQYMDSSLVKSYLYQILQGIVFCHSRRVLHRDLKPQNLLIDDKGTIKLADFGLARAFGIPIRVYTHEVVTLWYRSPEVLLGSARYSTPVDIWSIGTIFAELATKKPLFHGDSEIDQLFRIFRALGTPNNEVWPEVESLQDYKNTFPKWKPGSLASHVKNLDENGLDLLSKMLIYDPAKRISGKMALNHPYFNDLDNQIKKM
compound,measurement,setting,value
Nc1ccc2c(c1)Cc1cc([N+](=O)[O-])ccc1-2,IC50,Beta Lactamase,6.37 µM (active)
same,IC50,CHO,> 49.8 µM (inactive)
O=C(C=Cc1ccc(Br)cc1)Nc1cccc2cnccc12,Ki,[1],3.16 µM (active)
same,Ki,[2],2 µM (active)
same,Ki,[3],1.58 µM (active)
same,Ki,[4],1.58 µM (active)
same,Ki,LIM domain kinase 1,3.16 µM (active)
same,Ki,[5],2 µM (active)
same,Ki,[6],2 µM (active)
same,Ki,[7],1.58 µM (active)
same,Ki,[8],2.51 µM (active)
COC(=O)C(C)Oc1ccc(Cc2ncc(C(F)(F)F)cc2Cl)cc1 (stereo not drawn),CC50,[9],> 100 µM (active)
same,CC50,[10],> 100 µM (active)
same,CC50,[11],> 100 µM (active)
CN(Cc1cccc(F)c1)C(=O)c1ccccc1Sc1ccccc1C#N,EC50,[12],15 µM (active)
COc1ccc(Oc2c(F)cnn(Cc3cccc4ccccc34)c2=O)cc1,IC50,[13],8.86 µM (active)
same,IC50,[14],2.07 µM (active)
CCCn1c(=O)c2[nH]c(-c3cnn(Cc4cccc(C(F)(F)F)c4)c3)nc2n(CC)c1=O [GS 6201],Ki,[15],7.94 µM (active)
same,Ki,[16],7.94 µM (active)
same,Ki,[17],3.98 µM (active)
COc1ccc(S(=O)(=O)N(C)C[C@@H]2Oc3c(NC(=O)Nc4cccc5ccccc45)cccc3C(=O)N([C@@H](C)CO)C[C@H]2C)cc1Cl,AC50,INS1 [18],46.3 µM (active)
same,AC50,INS1 [19],39.5 µM (active)
same,AC50,INS1 [20],27.3 µM (active)
same,AC50,[21],52.8 µM (active)
same,AC50,INS1 [22],147 µM (active)
CNC(=O)c1ccccc1Sc1ccc2c(C=Cc3ccccn3)n[nH]c2c1,Ki,[23],> 7.94 µM (inactive)
same,Ki,[24],> 7.94 µM (inactive)
same,Ki,[25],> 6.31 µM (inactive)
same,Ki,[26],> 1.58 µM (inactive)
same,Ki,[27],> 3.98 µM (inactive)
same,Ki,[28],> 10 µM (inactive)
same,Ki,[29],> 10 µM (inactive)
same,Ki,[30],> 3.98 µM (inactive)
same,Ki,[31],> 1.58 µM (inactive)
same,Ki,[32],> 7.94 µM (inactive)
same,Ki,[33],> 1.26 µM (inactive)
Nc1nc(NCC2CCCO2)nc(Nc2ccc(Cl)cc2)c1[N+](=O)[O-] (stereo not drawn),AC50,[34],0.429 µM (active)
same,AC50,[35],1.56 µM (active)
